Paper PMC7822874, “Chemoprotective antimalarials identified through quantitative high-throughput screening of Plasmodium blood and liver stage parasites” (Scientific Reports, 2021)

Experiments:
Assay type in all cases: cell-based, Plasmodium falciparum
[1] = system: P. falciparum Dd2 Cytb G131S; test: SYBR Green ABS proliferation assay, NCGC00374598 selected clone C11; settings: Plasmodium falciparum, DD2, cytochrome b mutant line, second value triple, c6; […]; read-out: log AC50, mean (converted)
Method in brief: (§1)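 72 h SYBR Green-I read; % response = relative growth vs controls. Clones from resistance selection, cloned by limiting dilution; 37 °C, 5% CO2/5% O2/90% N2.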

[2] = system: P. falciparum Dd2 Cytb V259L; test: SYBR Green ABS proliferation assay, NCGC00473217 selected clone F06; settings: Plasmodium falciparum, DD2, cytochrome b mutant line, third value triple, c9; […]; read-out: log AC50, mean (converted)
Method in brief: as §1

[3] = system: P. falciparum Dd2 Cytb F123L; test: SYBR Green ABS proliferation assay, NCGC00473217 selected clone G08; settings: Plasmodium falciparum, DD2, cytochrome b mutant line, fifth value triple, c15; […]; read-out: log AC50, mean (converted)
Method: (§2) As resistance selection studies implicated the parasite cytochrome bc1 complex in mediating reduced parasite susceptibility to both NCGC00473217 and NCGC00374598, we leveraged these drug-selected parasites to test for altered drug response to a panel of antimalarial compounds.
(§3) The P. falciparum parasite Dd2 line was cultured in vitro using standard conditions. […] Tissue culture flasks and assay plates were incubated at 37 °C under a gas mixture of 5% CO2, 5% O2 and 90% N2. […] Significant differences were assessed using two-sided Student’s t-tests. All HTS assays were stopped and read at 72 h. Percent response values represent relative growth as judged by SYBR Green-I fluorescence intensity values normalized to controls.
(§4) Fresh uninfected RBCs (0.5% hematocrit) were added on day 7 and media was changed every other day. […] Resistant parasites were maintained under drug media at a volume of 50 mL until a high parasitemia (> 5%) was achieved. Aliquots of the bulk resistant cultures were frozen in cryovials before cloning by limiting dilution in 96-well plates (seeded at 0.25 or 0.5 parasites/well)[70]. After 3 weeks of cloning, we screened for positive wells by flow cytometry with SYBR Green-stained cells. […] Parasites were harvested by saponin lysis at the trophozoite stage and genomic DNA was extracted using the QIAamp DNA Blood Midi Kit (Qiagen, Germantown, MD)[71].

[4] = system: P. falciparum Dd2 Cytb A122D; test: SYBR Green ABS proliferation assay, NCGC00473217 selected clone F12; settings: Plasmodium falciparum, DD2, cytochrome b mutant line, fourth value triple, c12; […]; read-out: log AC50, mean (converted)
Method: as §2, §3, §4

| Compound | AC50 [1] [µM] | AC50 [2] [µM] | AC50 [3] [µM] | AC50 [4] [µM] |
| --- | --- | --- | --- | --- |
| COc1ccc(-c2nc(C3CC3)nc3c2CCN(C(=O)c2ccc(C(F)(F)F)cc2)CC3)cc1 [NCGC00374638-01] | 11.9 | 13.8 | 10.6 | 12.8 |
| COc1ccc(-c2nc(C(C)C)nc3c2CCN(C(=O)c2cccc(Cl)c2)CC3)cc1 [NCGC00479504-01] | 15.5 | 16.8 | 11.9 | 16.1 |
| COc1ccc(-c2nc(C3CC3)nc3c2CCN(Cc2ccc(F)cc2)CC3)cc1 [NCGC00374624-01] | 8.73 | 9.79 | 9.08 | 11 |
| CCCN1C(CC(C)C)=N[S+](=O)([O-])c2cc(NC(=O)c3ccc(Br)c(F)c3)ccc21 [NCGC00531761-01] | 1.12 | 3.36 | 0.0796 | 1 |
| CCCN1C(CC(C)C)=N[S+](=O)([O-])c2cc(NC(=O)c3cccc(C(F)(F)F)c3)ccc21 [NCGC00531777-01] | 0.71 | 1.36 | 0.00224 | 7.52 |
| CCCN1C(CC(C)C)=N[S+](=O)([O-])c2cc(NC(=O)c3ccccc3OC)ccc21 [NCGC00531762-01] | 1 | 2 | 2.52 | 1.12 |
| CCCN1C(CC(C)C)=N[S+](=O)([O-])c2cc(NC(=O)Cc3cccs3)ccc21 [NCGC00531815-01] | 10 | 7.67 | 5.64 | 5.22 |
| CCCN1C(CC(C)C)=N[S+](=O)([O-])c2cc(NC(=O)c3cccc(Cl)c3)ccc21 [NCGC00531770-01] | 4.74 | 3.56 | 4.48 | 2.82 |
| CCc1nc2c(c(-c3ccc(O)cc3)n1)CCN(Cc1cccn1C)CC2 [NCGC00480312-01] | 18.8 | 17.4 | 11.4 | 14.4 |
| CCCN1C(CC2CCOCC2)=N[S+](=O)([O-])c2cc(NC(=O)c3ccc(F)cc3)ccc21 [NCGC00537661-01] | 0.2 | 5.02 | 4.84 | 5.86 |
| O=c1[nH]c(N2CCOCC2)nc2c1CCN(Cc1ccc(Cl)c(F)c1)CC2 [NCGC00440655-01] | 11.4 | 13.8 | 4.55 | 12.8 |
| CCCN1C(CC2CCCCC2)=N[S+](=O)([O-])c2cc(NC(=O)c3ccc(F)cc3)ccc21 [NCGC00532335-01] | 0.861 | 5.32 | 0.282 | 3.3 |
| CCCN1C(COC)=N[S+](=O)([O-])c2cc(NC(=O)c3cccs3)ccc21 [NCGC00532347-01] | 1.78 | 8.93 | 0.00796 | 8.93 |
| CCCN1C(Cc2ccccc2)=N[S+](=O)([O-])c2cc(NC(=O)c3ccc(F)cc3)ccc21 [NCGC00532338-01] | 0.0893 | 0.767 | 0.356 | 3.17 |
| CC(C)c1nc2c(c(-c3ccc(Cl)cc3)n1)CCN(C(=O)c1ccc(C(F)(F)F)cc1)CC2 [NCGC00374584-01] | 6.93 | 7.5 | 8.41 | 7.5 |
| CCCN1C(CC(C)C)=N[S+](=O)([O-])c2cc(NCc3cccs3)ccc21 [NCGC00531814-01] | 15.9 | 17.8 | 15.9 | 19.3 |
| CCc1nc2c(c(-c3ccc(Cl)cc3)n1)CCN(Cc1ccc(NC(C)=O)cc1)CC2 [NCGC00476919-01] | 12.8 | 15 | 2.03 | 11.4 |
| Cc1cc(CN2CCc3nc(C(C)C)nc(-c4ccc(Cl)cc4)c3CC2)no1 [NCGC00374612-01] | 15.5 | 13.8 | 9.79 | 16.8 |
| COc1ccc(-c2nc(C3CC3)nc3c2CCN(Cc2ccccc2)CC3)cc1 [NCGC00374622-01] | 6.43 | 6.93 | 6.68 | 6.93 |
